Measurements taken from ChEMBL document CHEMBL1201862, “PubChem BioAssay data set” (2004).
Activity calls are given as the source filed them.

Assays:
[1] = NIH-3T3 fibroblast cytotoxicity, dose response, cytotoxicity control, cell-based, fluorescence, Alamar Blue, secondary assay (AID 2327); type: functional;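 further: NIH-3T3 mouse fibroblasts cultured with fluconazole at 8 µg/mL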
[2] = fluconazole-exposed Candida albicans growth modulators – fluorescence, retest, confirmation (AID 2467); type: functional, cell-based
[3] = biological target: T1, DNA repair protein RAD52 homolog (Homo sapiens, UniProt P43351); type: functional, biochemical
T1 sequence (P43351 whole entry): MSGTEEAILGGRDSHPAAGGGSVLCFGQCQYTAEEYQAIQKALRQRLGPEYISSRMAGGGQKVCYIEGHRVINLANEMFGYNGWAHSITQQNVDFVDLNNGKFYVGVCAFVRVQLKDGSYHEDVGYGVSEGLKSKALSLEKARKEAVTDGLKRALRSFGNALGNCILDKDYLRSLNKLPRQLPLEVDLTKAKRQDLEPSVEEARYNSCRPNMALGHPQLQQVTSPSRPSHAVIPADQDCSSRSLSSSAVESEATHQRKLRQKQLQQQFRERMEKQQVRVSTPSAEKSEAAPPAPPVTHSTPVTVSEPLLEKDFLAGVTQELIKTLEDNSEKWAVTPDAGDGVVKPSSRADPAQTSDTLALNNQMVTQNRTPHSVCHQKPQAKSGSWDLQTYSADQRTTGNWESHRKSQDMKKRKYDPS

[4] = biological target: T2, Ubiquitin-conjugating enzyme E2 N (Homo sapiens, UniProt P61088); type: functional;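 further: Dose-response confirmation in a TR-FRET assay detecting UBC13-driven polyubiquitin chain formation, inhibition measured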
T2 sequence (P61088 whole entry): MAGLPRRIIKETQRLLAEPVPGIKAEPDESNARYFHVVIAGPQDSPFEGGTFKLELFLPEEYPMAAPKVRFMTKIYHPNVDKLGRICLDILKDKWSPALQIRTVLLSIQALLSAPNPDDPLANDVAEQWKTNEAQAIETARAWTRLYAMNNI

Nonstructural protein 1 = Nonstructural protein 1 (Influenza A virus, UniProt Q194T2); type: functional, Influenza A virus (A/California/07/2009(H1N1))
Sequence of Nonstructural protein 1 (Q194T2 whole entry): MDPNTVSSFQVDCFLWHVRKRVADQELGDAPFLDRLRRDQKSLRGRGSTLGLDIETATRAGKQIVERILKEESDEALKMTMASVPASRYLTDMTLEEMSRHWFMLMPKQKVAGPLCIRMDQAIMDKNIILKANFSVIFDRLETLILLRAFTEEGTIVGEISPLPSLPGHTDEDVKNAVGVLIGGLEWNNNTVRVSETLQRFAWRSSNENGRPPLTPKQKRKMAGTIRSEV

[5] = test system: Streptococcus sp. 'group A'; experiment: Streptococcus pyogenes SK(-)GAS viability under kanamycin – luminescence, BacTiterGlo, confirmation, counter-screen for streptokinase expression inhibitor project, dose response (AID 1900); type: functional, organism-based
[6] = Trypanosoma cruzi growth suppression in host cells – NIH3T3 host cells, beta-gal luminescence, confirmation (AID 2044); type: functional, cell-based;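 further: intracellular parasites grown in NIH/3T3 mouse fibroblasts as host cells; luminescent beta-galactosidase reporter signal from transgenic T. cruzi replicating inside host cells; inhibitors lower the luminescence signal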
[7] = NIH3T3 cell viability loss – ATP luminescence, mouse fibroblasts, counter-screen, dose response (AID 2010); type: functional, cell-based;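 further: cells exposed to compound for about 90 hours before reading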
Streptococcus = experiment: GAS UMAA2166 growth inhibition – luminescence, BacTiterGlo, counter-screen for streptokinase expression inhibitor project, dose response (AID 1915); type: functional, organism-based;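 further: potency for reduction of bacterial viability or growth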
INS1 = experiment: INS-1E survival protection against cytokine death – cell-based, luminescence, retest, dose response (AID 449756); type: functional; details: Rattus norvegicus;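 further: cell death triggered by IL-1 beta plus TNF-alpha plus IFN-gamma mixture; protective hits raise ATP signal compared with cytokine alone wells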
[8] = reduction of Shn3 3'UTR-driven luciferase in osteoblasts – cell-based, Clone20 osteoblasts, firefly luciferase, cherry-picked, dose response (AID 624132); type: functional;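 further: firefly luciferase luminescence from reporter carrying the Shn3 3'UTR in osteoblasts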
[9] = loss of viability in HepG2 cells – cell-based, CellTiter-Glo, cherry-picked, cytotoxicity control for Shn3 inhibitor project, dose response (AID 624134); type: functional
[10] = non-specific 3'UTR reporter inhibition in Clone20-Shn3RL – cell-based, Renilla luciferase, cherry-picked, counter-screen for Shn3 inhibitor project, dose response (AID 624133); type: functional
Aminopeptidase N = biological target: T3, Aminopeptidase N (Plasmodium falciparum FcB1/Columbia, UniProt O96935); experiment: malaria alanyl aminopeptidase activity blockers – biochemical, fluorogenic H-Leu-NHMec substrate, 1536-well (AID 1445); design: species or system Plasmodium falciparum 3D7, 3D7
T3 sequence (O96935 whole entry): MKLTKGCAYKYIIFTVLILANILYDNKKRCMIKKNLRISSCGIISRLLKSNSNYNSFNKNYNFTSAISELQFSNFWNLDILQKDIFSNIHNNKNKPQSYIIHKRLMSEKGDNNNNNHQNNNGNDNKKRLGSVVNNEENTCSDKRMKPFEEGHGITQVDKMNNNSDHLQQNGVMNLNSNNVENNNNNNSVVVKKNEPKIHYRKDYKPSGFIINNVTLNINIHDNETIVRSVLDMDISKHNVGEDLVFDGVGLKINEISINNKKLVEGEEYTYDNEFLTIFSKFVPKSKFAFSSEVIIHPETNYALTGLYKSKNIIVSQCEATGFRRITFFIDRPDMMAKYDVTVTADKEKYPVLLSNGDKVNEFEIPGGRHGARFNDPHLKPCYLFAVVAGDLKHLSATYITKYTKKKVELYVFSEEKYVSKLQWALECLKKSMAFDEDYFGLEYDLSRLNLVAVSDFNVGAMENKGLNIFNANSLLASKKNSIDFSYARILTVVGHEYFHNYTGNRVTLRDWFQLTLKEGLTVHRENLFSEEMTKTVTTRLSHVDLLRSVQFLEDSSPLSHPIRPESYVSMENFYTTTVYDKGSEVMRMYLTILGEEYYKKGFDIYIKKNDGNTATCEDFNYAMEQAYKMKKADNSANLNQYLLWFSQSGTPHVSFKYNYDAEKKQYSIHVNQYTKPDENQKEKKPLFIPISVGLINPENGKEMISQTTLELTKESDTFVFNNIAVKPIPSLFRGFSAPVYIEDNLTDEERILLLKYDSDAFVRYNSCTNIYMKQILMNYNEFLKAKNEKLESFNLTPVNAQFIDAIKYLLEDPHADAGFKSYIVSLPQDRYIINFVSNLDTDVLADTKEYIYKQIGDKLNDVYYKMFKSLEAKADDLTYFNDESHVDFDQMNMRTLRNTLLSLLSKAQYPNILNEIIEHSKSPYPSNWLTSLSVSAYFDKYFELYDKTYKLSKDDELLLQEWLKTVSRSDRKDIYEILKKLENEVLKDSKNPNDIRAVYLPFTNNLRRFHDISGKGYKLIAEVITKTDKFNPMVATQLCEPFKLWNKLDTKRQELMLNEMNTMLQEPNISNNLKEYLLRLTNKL

[11] = microbe, parasite or virus in culture; type: functional; details: Mycobacterium tuberculosis
[12] = viability of PTEN-deleted HCT116 cells – cell-based, HCT116 PTEN knockout, dose response (AID 1047); type: functional;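 further: HCT116 colon tumor cells with PTEN knocked out; cells exposed to compound for 60 hours before readout; potency for loss of cell viability measured by luminescence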
[13] = viability of HCT116 lacking mutant beta-catenin – cell-based, human colon tumor, dose response (AID 1045); type: functional;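 further: HCT116 colon tumor cells with beta catenin knocked out; cells exposed to compound for 60 hours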
Fatty acid synthase [14] = biological target: T4, Fatty acid synthase (Homo sapiens, UniProt P49327); experiment: inhibition of human FAS-TE enzyme activity – biochemical, endpoint fluorescence intensity, uHTS hits, dose response (AID 624327); type: functional;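 further: fluorescence from hydrolysis of an O-methyl fluorescein acyl ester substrate by the enzyme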
T4 sequence (P49327 whole entry): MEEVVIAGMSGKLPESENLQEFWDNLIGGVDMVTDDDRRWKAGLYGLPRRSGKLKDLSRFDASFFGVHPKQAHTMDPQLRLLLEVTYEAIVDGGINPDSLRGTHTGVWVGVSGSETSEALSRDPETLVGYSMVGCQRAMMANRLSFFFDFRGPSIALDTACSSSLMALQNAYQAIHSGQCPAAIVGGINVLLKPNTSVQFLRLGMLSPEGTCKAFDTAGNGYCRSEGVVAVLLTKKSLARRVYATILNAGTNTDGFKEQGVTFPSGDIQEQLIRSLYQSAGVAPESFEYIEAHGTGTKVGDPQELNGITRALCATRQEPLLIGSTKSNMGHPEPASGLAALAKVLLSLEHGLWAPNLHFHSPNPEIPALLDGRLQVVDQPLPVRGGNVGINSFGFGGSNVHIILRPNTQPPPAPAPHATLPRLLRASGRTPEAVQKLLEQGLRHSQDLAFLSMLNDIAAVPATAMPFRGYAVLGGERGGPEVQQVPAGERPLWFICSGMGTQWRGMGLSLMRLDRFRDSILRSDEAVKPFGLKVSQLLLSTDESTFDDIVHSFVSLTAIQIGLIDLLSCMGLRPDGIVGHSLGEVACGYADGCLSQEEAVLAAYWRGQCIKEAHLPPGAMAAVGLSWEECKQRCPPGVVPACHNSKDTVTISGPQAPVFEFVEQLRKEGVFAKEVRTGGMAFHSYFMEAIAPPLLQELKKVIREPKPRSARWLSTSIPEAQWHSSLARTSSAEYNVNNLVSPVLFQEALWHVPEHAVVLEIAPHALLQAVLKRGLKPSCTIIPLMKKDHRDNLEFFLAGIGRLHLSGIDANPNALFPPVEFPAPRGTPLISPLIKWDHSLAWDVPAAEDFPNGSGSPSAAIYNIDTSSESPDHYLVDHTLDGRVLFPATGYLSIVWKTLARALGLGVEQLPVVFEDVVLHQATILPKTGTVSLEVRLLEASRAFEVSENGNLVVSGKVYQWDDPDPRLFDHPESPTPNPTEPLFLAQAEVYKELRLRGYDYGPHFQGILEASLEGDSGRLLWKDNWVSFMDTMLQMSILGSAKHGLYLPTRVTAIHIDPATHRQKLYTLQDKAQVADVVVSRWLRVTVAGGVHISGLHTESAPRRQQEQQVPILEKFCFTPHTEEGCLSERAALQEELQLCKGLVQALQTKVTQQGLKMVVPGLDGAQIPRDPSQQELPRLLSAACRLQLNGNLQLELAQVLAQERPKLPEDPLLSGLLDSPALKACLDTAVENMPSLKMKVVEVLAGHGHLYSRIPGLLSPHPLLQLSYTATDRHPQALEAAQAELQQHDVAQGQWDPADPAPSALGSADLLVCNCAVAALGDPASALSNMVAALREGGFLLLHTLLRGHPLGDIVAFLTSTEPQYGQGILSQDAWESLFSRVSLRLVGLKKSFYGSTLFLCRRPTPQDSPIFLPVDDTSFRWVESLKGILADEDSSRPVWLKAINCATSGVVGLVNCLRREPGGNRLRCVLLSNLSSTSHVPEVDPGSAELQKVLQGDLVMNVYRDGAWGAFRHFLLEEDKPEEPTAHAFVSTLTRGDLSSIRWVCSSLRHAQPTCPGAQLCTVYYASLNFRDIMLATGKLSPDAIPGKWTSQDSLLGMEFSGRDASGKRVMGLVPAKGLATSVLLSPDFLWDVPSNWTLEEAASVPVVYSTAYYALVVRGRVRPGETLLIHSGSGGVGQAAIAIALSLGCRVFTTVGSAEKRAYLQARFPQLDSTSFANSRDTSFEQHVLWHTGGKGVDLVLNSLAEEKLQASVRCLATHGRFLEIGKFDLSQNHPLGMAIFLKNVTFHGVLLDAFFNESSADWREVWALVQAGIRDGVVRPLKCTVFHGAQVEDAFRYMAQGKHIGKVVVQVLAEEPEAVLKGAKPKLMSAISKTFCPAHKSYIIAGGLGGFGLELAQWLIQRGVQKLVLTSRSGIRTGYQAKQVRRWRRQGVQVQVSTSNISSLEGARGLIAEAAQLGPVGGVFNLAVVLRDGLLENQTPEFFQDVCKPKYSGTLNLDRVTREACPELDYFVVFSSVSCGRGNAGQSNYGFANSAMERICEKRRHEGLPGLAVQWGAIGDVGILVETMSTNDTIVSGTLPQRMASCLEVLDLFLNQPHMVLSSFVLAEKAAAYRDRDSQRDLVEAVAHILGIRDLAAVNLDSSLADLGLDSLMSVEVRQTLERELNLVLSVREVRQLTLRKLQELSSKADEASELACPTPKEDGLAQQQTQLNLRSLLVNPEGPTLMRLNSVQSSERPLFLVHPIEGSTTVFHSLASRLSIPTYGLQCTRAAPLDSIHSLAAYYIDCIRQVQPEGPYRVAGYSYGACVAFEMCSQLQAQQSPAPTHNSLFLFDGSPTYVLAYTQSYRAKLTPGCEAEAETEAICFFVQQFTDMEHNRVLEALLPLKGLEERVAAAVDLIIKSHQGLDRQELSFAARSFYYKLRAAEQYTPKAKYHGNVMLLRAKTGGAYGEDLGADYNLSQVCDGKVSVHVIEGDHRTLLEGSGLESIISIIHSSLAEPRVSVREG

Fatty acid synthase [15] = biological target: T4, Fatty acid synthase; experiment: inhibition of human FAS-TE enzyme activity – biochemical, kinetic fluorescence intensity, dose response (AID 624326); type: functional;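 further: rate of fluorescence rise from hydrolysis of a fluorogenic O-methyl fluorescein ester substrate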
[16] = blockers of HIV-1 envelope-mediated cell-cell fusion – cherry-pick, dose response (AID 652057); type: functional, cell-based
[17] = blockers of HIV-1 ZM109 envelope-driven cell-cell fusion – HeLa effector, CEM target cells, luciferase, cherry-pick, dose response (AID 652058); type: functional, cell-based;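 further: luciferase signal from HIV-1 Env mediated cell-cell fusion of effector and target cells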
[18] = HIV-1 AD8 envelope cell-cell fusion blockers – cherry-pick, dose response (AID 652062); type: functional, cell-based;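 further: luciferase signal from cell-cell fusion driven by HIV-1 clade B AD8 Env; potency is for inhibitors of fusion seen as a drop in luminescence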
H9c2 = experiment: cells; type: functional, cell-based; details: Rattus norvegicus, H9c2, Myocardium;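 further: confirmatory concentration-response retest of ultra-high-throughput screening hits for modulation of myocardial damage; cell death induced by hydrogen peroxide oxidative stress; compound pretreatment for 60 min then peroxide exposure for 2 h; potency is for protecting the cells against peroxide damage rather than for killing them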
Paired box protein Pax-8 = Paired box protein Pax-8 (Homo sapiens, UniProt Q06710); experiment: PAX8 transcriptional activity inhibition in RMG-I – RMG-I cells, luciferase, cherry-pick, dose response (AID 687027); type: functional, cell-based;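 further: luciferase reporter driven by Pax8 target thyroperoxidase promoter measured by SteadyGlo luminescence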
Sequence of Paired box protein Pax-8 (Q06710 whole entry): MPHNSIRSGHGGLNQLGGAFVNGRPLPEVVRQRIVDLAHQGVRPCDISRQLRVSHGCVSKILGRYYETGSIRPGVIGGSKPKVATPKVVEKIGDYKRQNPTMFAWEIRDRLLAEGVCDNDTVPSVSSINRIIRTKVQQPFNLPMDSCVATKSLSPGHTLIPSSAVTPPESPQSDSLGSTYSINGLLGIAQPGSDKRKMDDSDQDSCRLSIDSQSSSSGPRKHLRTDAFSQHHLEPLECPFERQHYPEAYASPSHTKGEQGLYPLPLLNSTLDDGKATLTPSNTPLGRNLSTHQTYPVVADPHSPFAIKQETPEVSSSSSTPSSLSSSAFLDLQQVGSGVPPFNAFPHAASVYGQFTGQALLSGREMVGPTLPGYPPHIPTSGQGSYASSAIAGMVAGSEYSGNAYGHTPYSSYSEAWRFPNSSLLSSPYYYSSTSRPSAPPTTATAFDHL

COc1ccc(OC)c(-n2c(CN3CCC(C(N)=O)CC3)nc3ccccc3c2=O)c1
EC50 [1]: > 150 µM (inactive)
EC50 [2]: 3.29 µM (active)

CCN(CC)CCNC(=O)c1nn(-c2ccc(Cl)cc2)c2c1CCc1cc(OC)ccc1-2
AC50 [3]: 16.8 µM (active)

C#CCOCCOCCOCCNc1nc(N2CCOCC2)nc(N2CCN(C(=O)CCCCCCCCCCNC(=O)[C@@H]([C@H](C)CC)n3cc(CCCCCN)nn3)CC2)n1
IC50 [4]: > 20 µM (inactive)

O=C(C[n+]1ccccc1)NN=Cc1cc(Br)ccc1O
IC50 (Nonstructural protein 1): 2.96 µM (active)

COc1ccccc1C(NC(C)=O)c1cc(Cl)c2cccnc2c1O (configuration not stated)
EC50 [5]: 2.9 µM (active)
EC50 [6]: 0.647 µM (active)
EC50 [7]: 2.85 µM (active)
EC50 (Streptococcus): 2.95 µM (active)
AC50 (INS1): 1.38 µM (active)
AC50 [8]: 2.56 µM (active)
AC50 [9]: 2.3 µM (active)
AC50 [10]: 1.27 µM (active)

Cc1c(Cc2ccccc2)c(=O)oc2c(CN(C)C)c(O)c(Cl)cc12
IC50 (Aminopeptidase N): 33 µM (active)

CC(=O)Nc1ccc(S(=O)(=O)Nc2nc3ccccc3nc2Nc2ccccc2)cc1
IC50 (Aminopeptidase N): 94.9 µM (active)

CC(C)c1ccc(OCC(=O)Nc2cccc(C(=O)Nc3ccccc3C(=O)O)c2)cc1
EC50 [1]: 16.9 µM (inconclusive)
EC50 [2]: 1.9 µM (active)

O=C(N/N=C/c1ccc(Cl)cc1Cl)Nc1ccccc1
EC50 [1]: > 160 µM (inactive)
EC50 [2]: > 38 µM (not active)

C[C@@H]1CCCCCCCCC(=O)OCCN[C@H](C)CCCCCCCCC(=O)OCCN[C@H](C)CCCCCCCCC(=O)OCCN1
CC50 [11]: 26.5 µM (active)
IC50 [4]: > 20 µM (inactive)

Cc1nnc(NC(=O)c2ccc3ccccc3n2)s1
IC50 (Aminopeptidase N): 36.8 µM (active)

CN1CCN(Cc2nc3ccccc3c(=O)n2Cc2nc(-c3ccc([N+](=O)[O-])cc3)cs2)CC1
EC50 [12]: 4.88 µM (active)
EC50 [13]: 7.87 µM (active)
IC50 [4]: > 20 µM (inactive)

Cc1c(C(=O)OCCOc2ccc(Br)cc2)sc(=S)n1C
IC50 (Fatty acid synthase [14]): 7.07 µM (active)
IC50 (Fatty acid synthase [15]): 5.67 µM (active)

CCCOC(=O)/C(=C\c1ccc([N+](=O)[O-])o1)NC(=O)c1ccccc1
EC50 [1]: > 160 µM (inactive)
EC50 [2]: 0.174 µM (active)
CC50 [11]: 35.1 µM (active)

O=C(Nc1cccc(C(=O)O)c1)/C(=C/c1cccc([N+](=O)[O-])c1)NC(=O)c1cccc(Br)c1
IC50 (Fatty acid synthase [14]): 19.4 µM (active)
IC50 (Fatty acid synthase [15]): 13.2 µM (active)

O=C(COc1cc(F)ccc1[N+](=O)[O-])Nc1ccc(N2CCCCC2)cc1
IC50 (Nonstructural protein 1): 21.3 µM (active)

CCCS(=O)(=O)Nc1ccc(Nc2c3ccccc3nc3ccccc23)c(OC)c1
AC50 [8]: 3.39 µM (active)
AC50 [9]: 20.1 µM (active)
AC50 [10]: 1.03 µM (active)
AC50 [3]: 3.15 µM (active)

CCSC1=NC(=O)/C(=C2/C=Cc3ccccc3N2CC)S1
IC50 (Nonstructural protein 1): 9.25 µM (active)

COc1cccc(-n2c(CN3CCN(c4ccccc4)CC3)nc3ccc([N+](=O)[O-])cc3c2=O)c1
IC50 (Fatty acid synthase [14]): 4.81 µM (active)
IC50 (Fatty acid synthase [15]): 7.99 µM (active)

C/N=C(\C[N+](=O)[O-])NCCSCc1ccc(CN(C)C)o1
AC50 [3]: 12.5 µM (active)

CC1(C)CC(=O)C=C(c2ccc(-c3cnn(Cc4ccccc4)c3)cc2)C1=O
IC50 (Fatty acid synthase [14]): 8.34 µM (active)
IC50 (Fatty acid synthase [15]): 8.05 µM (active)

CC(=O)Oc1ccc2c(C)c(CC(C)O)c(=O)oc2c1 (configuration not stated)
IC50 (Aminopeptidase N): 62.4 µM (active)

CC(C)NC(=O)Nc1ccc2c(c1)CC(=O)N([C@H](C)CO)C[C@H](C)[C@H](CN(C)S(=O)(=O)c1ccccc1)O2
AC50 [16]: 8.61 µM (active)
AC50 [17]: 10.7 µM (active)
AC50 [18]: 35.9 µM (active)

CCOc1ccc(C(C(=O)NCC2CCCO2)N(C(=O)c2snc(C(N)=O)c2N)c2ccccc2F)cc1 (configuration not stated)
IC50 [4]: > 20 µM (inactive)
IC50 (H9c2): > 79 µM (inactive)

C[C@@]12C(=O)Nc3cc(F)ccc3C(=O)N1[C@H]1c3ccccc3OC[C@@H]1[C@@H]2c1ccccc1
IC50 (Fatty acid synthase [14]): 18.1 µM (active)
IC50 (Fatty acid synthase [15]): 20.3 µM (inactive)

CC(C)CC#Cc1ccc2c(c1)O[C@H](CN(C)S(=O)(=O)c1ccc(F)cc1)[C@H](C)CN([C@@H](C)CO)S2(=O)=O
AC50 [16]: 26.6 µM (active)
AC50 [17]: 20.8 µM (active)
AC50 (Paired box protein Pax-8): 9.6 µM (active)
AC50 [18]: 23.7 µM (active)

O=C(CN1C(=O)C2C3CC(C(Br)C3Br)C2C1=O)Nc1ccc(C(=O)O)cc1 (configuration not stated)
IC50 (Aminopeptidase N): 62.5 µM (active)

O=C1Nc2ccccc2S/C1=C/NCc1ccccc1Cl
IC50 (Aminopeptidase N): 5.63 µM (active)
